The text below walks through data of patent US20130309218A1, “PROCESS FOR PRODUCING AQUEOUS SOLUTION CONTAINING FAT-SOLUBLE SUBSTANCE” (WACKER CHEMIE AG, priority 2011, published 2013).

Holding throughout (type): physicochemical
Series [1] is described as follows: H-1: solubility of CAPE with NaTC (HPLC). To be noted: 1.4 mg CAPE (as complex or alone) in 5 mL water, sonicated 3 minutes. The method, then:
As a comparison, water or a solution prepared by dissolving a super solubilizer (1.0% (w/v) NaTC) in water was combined with 1.4 mg of CAPE (in lieu of CAPE-γCD complex) and the mixture was prepared as described above. The resulting mixture was left to stand and filtered and the resulting solution was analyzed using HPLC.

A short description of series [2]: B-1: solubility of CoQ10 with NaTC (HPLC). To be noted: 50 mM MES buffer, 2 hours at 40° C. As to the method: 1450 μL each of a 50 mM 2-morpholinoethanesulfonic acid (MES) buffer solution (containing 300 mM NaCl, 140 mM KSCN and 5 mM CaCl2) or the aforementioned buffer solution into which a super solubilizer (0.42% (w/v) NaTC, 0.83% (w/v) NaTC or 1.66% (w/v) NaTC) was dissolved were added to 57 mg of CAVAMAX® W8 CoQ10 (5 mg water content, 12.14 mg CoQ10 and 40 mg γCD) and sonication was performed for several seconds using an ultrasonic apparatus (Ikeda Scientific Co., Ltd.) and left to stand for 2 hours at 40° C.
As a comparison, 2 mL of 50 mM 2-morpholinoethanesulfonic acid (MES) buffer solution (containing 300 mM NaCl, 140 mM KSCN and 5 mM CaCl2) (in lieu of NaTC) was added to 12.14 mg of CoQ10 (in lieu of CAVAMAX® W8 CoQ10), and the mixture was prepared as described above. The resulting mixture was left to stand and filtered and the resulting solution was analyzed using HPLC.

Series [3] is described as follows: B-2: solubility of CoQ10 with GZK2 (HPLC). The following applies: 12 mg CoQ10 (as complex or alone) in 3 mL purified water, sonicated 1 hour. The method, then:
0 mg, 6.2 mg, 12.5 mg, 25 mg or 50 mg of GZK2 was mixed into 60 mg of CAVAMAX® W8 CoQ10 (containing 12 mg of CoQ10) as a super solubilizer and 3 mL purified water was added. The resulting mixture was then sonicated for 1 hour using an ultrasonic apparatus (Ikeda Scientific Co., Ltd.).
As a comparison, GZK2 was incorporated into 12 mg of CoQ10 as a super solubilizer and the mixture was prepared as described above. The resulting mixture was left to stand and filtered and the resulting solution was analyzed using HPLC.

Series [4] in a line: Follow-up HPLC measurement of curcumin concentration in αCD aqueous solution comparable to Patent Document 2, Table 4. As to the method: Additionally, given that the maximum value of the concentration of the standard solution which was used as a reference was 100 μg/mL (Patent Document 2, Table 3), the concentration is outside the measurement range of the standard and is likely unreliable.

Series [5] can be described thus: A-1 Preparation Method 1: solubility of curcumin with NaTC (HPLC). The following applies: 50 mM MES buffer, sonicated, 2 hours at 40° C., 0.2 μm filter. As to the method: The mixture was then filtered and the solution obtained was analyzed via HPLC as described above.
Series [6] in a line: A-2: solubility of curcumin with GZ (HPLC). To be noted: 50 mM MES buffer, 2 hours at 40° C.
A short description of series [7]: A-4: solubility of curcumin with quillaja saponin (HPLC). The following applies: total 2 mL 10% aqueous ethanol, 1 hour at 40° C. As to the method: The mixture was then allowed to stand, was filtered and the resulting solution was analyzed using HPLC.
The nature of series [8]: A-5: solubility of curcumin with polysorbate (HPLC). To be noted: Super Solubilizer: None (comparison); 1.4 mg curcumin in 2 mL ion-exchanged water. As to the method: This mixture was then sonicated for several seconds using an ultrasonic apparatus (Ikeda Scientific Co., Ltd.) and left to stand for 10 min at 40° C.
(§1) The resulting mixture was left to stand and filtered and the resulting solution was analyzed using HPLC.

Series [9] in a line: A-6: solubility of curcumin with methylcellulose (HPLC). To be noted: Super Solubilizer: None (comparison); 1.4 mg curcumin in 2 mL ion-exchanged water. As to the method: This mixture was then mixed by inversion.
as §1

The nature of series [10]: A-8: solubility of curcumin with Na glycocholate (HPLC). To be noted: Amount of Na Glycocholate Added 2.0% (w/v); 2 mL water; filtered immediately following mixing.

For the compound `O=C(/C=C/c1ccc(O)c(O)c1)OCCc1ccccc1` [CAPE, caffeic acid phenethyl ester], the figures for the “CAPE Concentration” value in [1] (NaTC concentration 0% (w/v)) and in series [1] (NaTC concentration 1.0% (w/v)) were 16 µg/mL and 155 µg/mL, respectively.
For `COC1=C(OC)C(=O)C(C/C=C(\C)CC/C=C(\C)CC/C=C(\C)CC/C=C(\C)CC/C=C(\C)CC/C=C(\C)CC/C=C(\C)CC/C=C(\C)CC/C=C(\C)CCC=C(C)C)=C(C)C1=O` [CoQ10, coenzyme Q10], the “CoQ10 Concentration” value came to 0 µg/mL in series [2] (NaTC concentration 0% (w/v)); 0 µg/mL in series [2] (NaTC concentration 0.42% (w/v)); 0 µg/mL in series [2] (NaTC concentration 0.83% (w/v)); 1.52 µg/mL in series [2] (NaTC concentration 1.66% (w/v)); 0.2 µg/mL in series [3] (Amount of GZK2 Added 0 mg); 3.6 µg/mL in series [3] (Amount of GZK2 Added 6.2 mg). Moreover, the “CoQ10 Concentration” value in series [3] (Amount of GZK2 Added 12.5 mg) amounted to 9.1 µg/mL; in series [3] (Amount of GZK2 Added 25 mg), 3.9 µg/mL; in [3] (Amount of GZK2 Added 50 mg) it was 3.9 µg/mL.
With `COc1cc(/C=C/C(=O)CC(=O)/C=C/c2ccc(O)c(OC)c2)ccc1O` [Curcumin, curcumin], the values for the concentration of curcumin in series [4] (content of αCD 1%), in series [4] (content of αCD 2.5%) and in series [4] (content of αCD 5%) were 1470 ng/mL, 3630 ng/mL and 8290 ng/mL, respectively. In addition, the “Curcumin Concentration” value in [5] (NaTC concentration 0% (w/v)) came out at 3.95 µg/mL; in series [5] (NaTC concentration 0.83% (w/v)), 35.35 µg/mL; in [5] (NaTC concentration 1.66% (w/v)), 219.2 µg/mL; in series [6] (GZ Concentration 0% (w/v)), 3.95 µg/mL; in [6] (GZ Concentration 3.50% (w/v)) it was 98.19 µg/mL; in series [7] (Amount of QS Added 0 μL), 0.02 µg/mL. For the same compound, the “Curcumin Concentration” value in series [7] (Amount of QS Added 200 μL) was determined as 16.81 µg/mL; in [7] (Amount of QS Added 1000 μL) it was 122.96 µg/mL; in series [8] it was 0.01 µg/mL; in series [9], 0.01 µg/mL; in [10], 12.31 µg/mL.
